In patent publication US9278962B2 (Cytokinetics, Inc., priority 2011, dated 2016):

Test system: rabbit skeletal myofibrils (approximately 90% fast fibers)
Experiment: Activation of fast skeletal myofibrils (PUMA coupled-enzyme ATPase assay, AC1.4)
Type: biochemical
Settings: concentration at which the compound increased enzymatic activity by 40%, calcium at pCa25
Experimental: Rabbit skeletal myofibrils were prepared based upon the method of Herrmann et al. (Biochem. 32(28):7255-7263(1993). Myofibrils were prepared from rabbit psoas muscle purchased from Pel-Freez Biologicals (Arkansas) within 2 days of ordering, stored on ice. Minced muscle was homogenized in 10 volumes of ice-cold “standard” buffer (50 mM Tris, pH 7.4, 0.1 M potassium acetate, 5 mM KCl, 2 mM DTT, 0.2 mM PMSF, 10 μM leupeptin, 5 μM pepstatin, and 0.5 mM sodium azide) containing 5 mM EDTA and 0.5% Triton X-100 using an Omni-Macro homogenizer. Myofibrils were recovered by low speed centrifugation (3000 rpm for 10 minutes) and washed 2 times in the Triton X-100 containing buffer to ensure removal of cellular membrane. Following the Triton washes, myofibrils were washed 3 times in “standard” buffer containing 2 mM magnesium acetate. A final wash in assay buffer (12 mM PIPES, pH 6.8, 60 mM KCl, 1 mM DTT) was performed and brought to 10% sucrose for flash freezing in liquid nitrogen and storage at −80° C.
Fast fiber activators were identified by measuring the enzymatic activity of muscle myofibril preparations using the proprietary PUMA™ (see, e.g., U.S. Pat. Nos. 6,410,254, 6,743,599, 7,202,051, and 7,378,254) assay system. Myofibril preparations consisted of rabbit skeletal muscle (approximately 90% fast fibers) that had been mechanically homogenized and washed with a detergent (triton X-100) to remove cellular membranes. This preparation retained all of the sarcomeric components in a native conformation and the enzymatic activity was still regulated by calcium. Compounds were tested using a myofibril suspension and a level of calcium sufficient to increase enzymatic activity of the myofibrils to 25% of their maximal rate (termed pCa25). Enzymatic activity was tracked via a pyruvate kinase and lactate dehydrogenase-coupled enzyme system. This assay regenerates myosin-produced ADP into ATP by oxidizing NADH, producing an absorbance change at 340 nm. The buffering system was 12 mM Pipes, 2 mM MgCl2, 1 mM DTT at pH 6.8 (PM12 buffer).
Using procedures similar to those described herein, utilizing reagents and intermediates commercially available (e.g., Sigma-Aldrich) or readily synthesized by one of skill in the art, the compounds in Table 2, Table 3, Table 4 and Table 5 were synthesized, characterized and tested. AC1.4 values were determined according to the procedure described in Example 6, and the reported median AC1.4 values are as follows: A=<1 uM; B=1-10 uM; C=10-20 uM; D=>20 uM.

SMILES | Mean AC1.4 (Table 2) | also measured
Cn1cc(-c2nsc(NCC(C)(C)c3ccc(F)cc3)n2)cn1 [[2-(4-fluorophenyl)-2-methylpropyl][3-(1-methylpyrazol-4-yl)(1,2,4-thiadiazol-5-yl] | B (B=1-10 uM) | –
NC(=O)c1ccc2nc(NCC3(c4ccccn4)CCC3)sc2c1 [2-((1-(pyridin-2-yl)cyclobutyl)methylamino)benzo[d] thiazole-6-carboxamide] | – | Mean AC1.4 (Table 4): B (B=1-10 uM)
C[C@H](CNc1nc(-c2cn[nH]c2)ns1)c1ccc(F)cc1 [[(2S)-2-(4-fluorophenyl)propyl](3-pyrazol-4-yl(1,2,4-thiadiazol-5-yl))amine] | B (B=1-10 uM) | –
N#Cc1cccc(-c2nsc(NCCc3ccc(F)cc3)n2)c1 [3-(5-{[2-(4-fluorophenyl)ethyl]amino}-1,2,4-thiadiazol-3-yl)benzenecarbonitrile] | D (D=>20 uM) | –
CN(CCO)Cc1nsc(NCC(C)(C)c2ccc(F)cc2)n1 [2-{[(5-{[2-(4-fluorophenyl)-2-methylpropyl]amino}(1,2,4-thiadiazol-3-yl))methyl]methylamino}ethan-1-ol] | D (D=>20 uM) | –
Cc1csc(CCNc2nc(Cc3ccc(F)cc3)ns2)n1 [{3-[(4-fluorophenyl)methyl](1,2,4-thiadiazol-5-yl)}[2-(4-methyl(1,3-thiazol-2-yl))ethyl]amine] | D (D=>20 uM) | –
CC(C)(CNc1nc(-c2ccc(F)cc2)ns1)c1ccc(F)cc1 [[3-(4-fluorophenyl)(1,2,4-thiadiazol-5-yl)][2-(4-fluorophenyl)-2-methylpropyl]amine] | B (B=1-10 uM) | –
Cc1ccsc1-c1nnc(NC[C@]2(c3ncccc3F)C[C@@H](F)C2)s1 [N-(((cis)-3-fluoro-1-(3-fluoropyridin-2-yl)cyclobutyl)methyl)-5-(3-methylthiophen-2-yl)-1,3,4-thiadiazol-2-amine] | – | Mean AC1.4 (Table 3): B (B=1-10 uM)
COc1cccc(Cc2nsc(NC[C@@H](C)c3ccc(F)cc3)n2)c1 [[(2S)-2-(4-fluorophenyl)propyl]{3-[(3-methoxyphenyl)methyl](1,2,4-thiadiazol-5-yl)}amine] | A (A=<1 uM) | –
Cc1ccc(-c2nnc(NC[C@]3(c4ncccc4F)C[C@@H](F)C3)s2)s1 [N-(((cis)-3-fluoro-1-(3-fluoropyridin-2-yl)cyclobutyl)methyl)-5-(5-methylthiophen-2-yl)-1,3,4-thiadiazol-2-amine] | – | Mean AC1.4 (Table 3): D (D=>20 uM)
NC(=O)c1ccc(-c2nnc(NCC3(c4ncccc4F)CCC3)s2)cc1 [4-(5-((1-(3-fluoropyridin-2-yl)cyclobutyl)methylamino)-1,3,4-thiadiazol-2-yl)benzamide] | – | Mean AC1.4 (Table 3): D (D=>20 uM)
Cc1nc(NCC2(c3ncccc3F)CCC2)sc1-c1ccccc1 [N-((1-(3-fluoropyridin-2-yl)cyclobutyl)methyl)-4-methyl-5-phenylthiazol-2-amine] | – | Mean AC1.4 (Table 5): A (A=<1 uM)
Cc1ccc(Cc2nsc(NCCc3ccc(Cl)c(Cl)c3)n2)cc1 [[2-(3,4-dichlorophenyl)ethyl]{3-[(4-methylphenyl)methyl](1,2,4-thiadiazol-5-yl)}amine] | B (B=1-10 uM) | –
CC(C)(CNc1nc(CCC(=O)N2CCCC(O)C2)ns1)c1ccc(F)cc1 (stereo not drawn) [3-(5-{[2-(4-fluorophenyl)-2-methylpropyl]amino}(1,2,4-thiadiazol-3-yl))-1-(3-hydroxypiperidyl)propan-1-one] | D (D=>20 uM) | –
N#Cc1cc(C(N)=O)cc2sc(NCC3(c4ncccc4F)CCC3)nc12 [4-cyano-2-((1-(3-fluoropyridin-2-yl)cyclobutyl)methylamino)benzo[d] thiazole-6-carboxamide] | – | Mean AC1.4 (Table 4): A (A=<1 uM)
N#Cc1ccc(C#N)c(-c2nnc(NC[C@]3(c4ncccc4F)C[C@H](F)C3)s2)c1 [2-(5-((3-fluoro-1-(3-fluoropyridin-2-yl)cyclobutyl)methylamino)-1,3,4-thiadiazol-2-yl)terephthalonitrile] | – | Mean AC1.4 (Table 3): B (B=1-10 uM)
Fc1cccnc1C1(CNc2nnc(C3CCCC3)s2)CCC1 [5-cyclopentyl-N-((1-(3-fluoropyridin-2-yl)cyclobutyl)methyl)-1,3,4-thiadiazol-2-amine] | – | Mean AC1.4 (Table 3): B (B=1-10 uM)
N#Cc1cc(Cl)c2nc(NCC3(c4ncccc4F)CCC3)sc2c1 [4-chloro-2-((1-(3-fluoropyridin-2-yl)cyclobutyl)methylamino)benzo[d] thiazole-6-carbonitrile] | – | Mean AC1.4 (Table 4): B (B=1-10 uM)
Oc1cccc(Cc2nsc(NCCc3cccc(Cl)c3)n2)c1 [3-[(5-{[2-(3-chlorophenyl)ethyl]amino}-1,2,4-thiadiazol-3-yl)methyl]phenol] | B (B=1-10 uM) | –
CC(C)(CNc1nc(C(N)=O)ns1)c1ccc(F)cc1 [5-{[2-(4-Fluorophenyl)-2-methylpropyl]amino}-1,2,4-thiadiazole-3-carboxamide] | C (C=10-20 uM) | –
Cc1ccc(Cc2nsc(NCCc3ccccc3Cl)n2)cc1 [[2-(2-chlorophenyl)ethyl]{3-[(4-methylphenyl)methyl](1,2,4-thiadiazol-5-yl)}amine] | D (D=>20 uM) | –
Clc1ccc2nc(NCC3(c4ccccn4)CCC3)sc2c1 [6-chloro-N-((1-(pyridin-2-yl)cyclobutyl)methyl)benzo[d] thiazol-2-amine] | – | Mean AC1.4 (Table 4): B (B=1-10 uM)
Fc1cccnc1[C@]1(CNc2nnc(-c3cc(Br)ccc3Cl)s2)C[C@@H](F)C1 [5-(5-bromo-2-chlorophenyl)-N-(((trans)-3-fluoro-1-(3-fluoropyridin-2-yl)cyclobutyl)methyl)-1,3,4-thiadiazol-2-amine] | – | Mean AC1.4 (Table 3): A (A=<1 uM)
CC(C)(CNc1nc(Cl)ns1)c1ccc(F)cc1 [3-Chloro-N-(2-(4-fluorophenyl)-2-methylpropyl)-1,2,4-thiadiazol-5-amine] | B (B=1-10 uM) | –
CC(C)(CNc1nc(-c2ccc(C(N)=O)nc2)ns1)c1ccc(F)cc1 [5-(5-{[2-(4-fluorophenyl)-2-methylpropyl]amino}-1,2,4-thiadiazol-3-yl)pyridine-2-carboxamide] | A (A=<1 uM) | –
C[C@@H](CNc1nc(Cc2cccc(O)c2)ns1)c1ccc(F)cc1 [3-[(5-{[(2R)-2-(4-fluorophenyl)propyl]amino}-1,2,4-thiadiazol-3-yl)methyl]phenol] | A (A=<1 uM) | –
NC(=O)c1ccc(F)c(-c2nsc(NC3(c4ncccc4F)CCC3)n2)c1 [4-fluoro-3-(5-{[(3-fluoro(2-pyridyl))cyclobutyl]amino}(1,2,4-thiadiazol-3-yl))benzamide] | D (D=>20 uM) | –

More lines, main results first:

Mean AC1.4 (Table 2) | SMILES | also measured
B (B=1-10 uM) | COc1ccc(-c2nsc(NCC(C)(C)c3ccc(F)cc3)n2)c(Cl)c1 [[3-(2-chloro-4-methoxyphenyl)(1,2,4-thiadiazol-5-yl)][2-(4-fluorophenyl)-2-methylpropyl]amine] | –
D (D=>20 uM) | COc1cccc(Cc2nsc(NCCc3ccccc3Cl)n2)c1 [[2-(2-chlorophenyl)ethyl]{3-[(3-methoxyphenyl)methyl](1,2,4-thiadiazol-5-yl)}amine] | –
B (B=1-10 uM) | Cc1ccc(Cc2nsc(NCCc3cccc(Cl)c3)n2)cc1 [[2-(3-chlorophenyl)ethyl]{3-[(4-methylphenyl)methyl](1,2,4-thiadiazol-5-yl)}amine] | –
D (D=>20 uM) | Oc1ccc(CCNc2nc(Cc3cccc(O)c3)ns2)cc1 [3-[(5-{[2-(4-hydroxyphenyl)ethyl]amino}-1,2,4-thiadiazol-3-yl)methyl]phenol] | –
B (B=1-10 uM) | COC/C=C/c1nsc(NCC(C)(C)c2ccc(F)cc2)n1 [[3-((1E)-3-methoxyprop-1-enyl)(1,2,4-thiadiazol-5-yl)][2-(4-fluorophenyl)-2-methylpropyl]amine] | –
D (D=>20 uM) | CCOC(=O)/C=C/c1nsc(NCC(C)(C)c2ccc(F)cc2)n1 [ethyl (2E)-3-(5-{[2-(4-fluorophenyl)-2-methylpropyl]amino}(1,2,4-thiadiazol-3-yl))prop-2-enoate] | –
B (B=1-10 uM) | CC(C)(CNc1nc(-c2ccccc2)ns1)c1ccc(F)cc1 [[2-(4-fluorophenyl)-2-methylpropyl](3-phenyl(1,2,4-thiadiazol-5-yl))amine] | –
C (C=10-20 uM) | CC(=O)NCCCc1nsc(NCC(C)(C)c2ccc(F)cc2)n1 [N-[3-(5-{[2-(4-fluorophenyl)-2-methylpropyl]amino}-1,2,4-thiadiazol-3-yl)propyl]acetamide] | –
B (B=1-10 uM) | CC(C)(CNc1ncns1)c1ccc(F)cc1 [[2-(4-fluorophenyl)-2-methylpropyl]-1,2,4-thiadiazol-5-ylamine] | –
